Tests used:
Assay in all cases: Kinase panel, CaNDY 1 µM
Assay type in all cases: biochemical
Details in all cases: CaNDY 1 µM relative to DMSO
IKKα = target: T1, IKKα (Homo sapiens, UniProt O15111)
T1 construct: purchased Carna Biosciences
Method in brief: (§1)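 Compound in DMSO is diluted into assay buffer (final 1% DMSO) and incubated with the kinase reaction for one hour at room temperature. Substrate and phosphorylated product are then separated electrophoretically, and the P/(P + substrate) ratio gives percent inhibition versus an untreated control.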

ALK(L1196M) = target: T2, ALK(L1196M) (Homo sapiens, UniProt Q9UM73, L1196M)
T2 construct: purchased Carna Biosciences
Method in brief: as §1

SRC = target: T3, SRC (Homo sapiens, UniProt P12931)
T3 construct: purchased Carna Biosciences
Method in brief: as §1

PASK = target: T4, PASK (Homo sapiens, UniProt Q96RG2)
T4 construct: purchased Carna Biosciences
T4 sequence (Q96RG2 whole entry): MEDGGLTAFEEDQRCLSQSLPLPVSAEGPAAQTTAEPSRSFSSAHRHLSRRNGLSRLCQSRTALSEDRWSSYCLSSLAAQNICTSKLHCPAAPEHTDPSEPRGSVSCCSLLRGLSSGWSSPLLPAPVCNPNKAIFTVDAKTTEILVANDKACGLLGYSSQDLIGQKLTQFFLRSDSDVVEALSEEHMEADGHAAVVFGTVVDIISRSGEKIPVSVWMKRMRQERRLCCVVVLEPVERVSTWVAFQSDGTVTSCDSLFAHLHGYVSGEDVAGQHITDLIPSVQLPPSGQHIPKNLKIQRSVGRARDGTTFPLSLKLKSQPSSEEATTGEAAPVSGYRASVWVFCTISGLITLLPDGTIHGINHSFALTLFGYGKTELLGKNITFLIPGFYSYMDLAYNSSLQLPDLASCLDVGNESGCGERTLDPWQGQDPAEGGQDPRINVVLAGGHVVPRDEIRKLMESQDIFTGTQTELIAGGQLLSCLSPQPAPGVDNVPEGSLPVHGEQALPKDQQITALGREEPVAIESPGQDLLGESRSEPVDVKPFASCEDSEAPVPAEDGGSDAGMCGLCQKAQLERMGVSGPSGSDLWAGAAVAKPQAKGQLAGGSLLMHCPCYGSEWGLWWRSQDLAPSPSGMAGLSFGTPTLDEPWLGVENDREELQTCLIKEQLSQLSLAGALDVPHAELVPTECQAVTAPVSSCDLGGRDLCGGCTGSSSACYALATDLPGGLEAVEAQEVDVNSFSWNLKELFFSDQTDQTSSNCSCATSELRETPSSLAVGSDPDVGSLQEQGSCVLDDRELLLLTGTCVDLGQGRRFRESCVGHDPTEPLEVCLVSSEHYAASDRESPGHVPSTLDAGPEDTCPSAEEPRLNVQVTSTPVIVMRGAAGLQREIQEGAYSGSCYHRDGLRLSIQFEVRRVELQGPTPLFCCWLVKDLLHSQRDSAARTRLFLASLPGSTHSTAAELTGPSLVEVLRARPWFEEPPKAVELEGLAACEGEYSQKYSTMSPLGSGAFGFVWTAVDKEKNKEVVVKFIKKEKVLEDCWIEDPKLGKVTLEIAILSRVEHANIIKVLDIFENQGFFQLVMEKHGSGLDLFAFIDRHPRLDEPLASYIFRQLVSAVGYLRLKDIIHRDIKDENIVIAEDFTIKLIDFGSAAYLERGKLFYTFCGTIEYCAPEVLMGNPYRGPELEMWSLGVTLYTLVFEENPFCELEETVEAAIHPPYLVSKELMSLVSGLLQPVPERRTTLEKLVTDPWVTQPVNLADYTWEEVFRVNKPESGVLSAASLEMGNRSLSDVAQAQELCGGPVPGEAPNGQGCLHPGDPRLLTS
Method in brief: as §1

TRKB = target: T5, TRKB (Homo sapiens, UniProt Q16620)
T5 construct: purchased Carna Biosciences
Method in brief: as §1

BTK = target: T6, BTK (Homo sapiens, UniProt Q06187)
T6 construct: purchased Carna Biosciences
Method in brief: as §1

MGC42105 = target: T7, MGC42105 (Homo sapiens, UniProt Q8IY84)
T7 construct: purchased Carna Biosciences
Method in brief: as §1

BRK = target: T8, BRK (Homo sapiens, UniProt Q13882)
T8 construct: purchased Carna Biosciences
Method in brief: as §1

FLT4 = target: T9, FLT4 (Homo sapiens, UniProt P35916)
T9 construct: purchased Carna Biosciences
Method in brief: as §1

SPHK2 = target: T10, SPHK2 (Homo sapiens, UniProt Q9NRA0)
T10 construct: purchased Carna Biosciences
Method in brief: as §1

ALK = target: T11, ALK (Homo sapiens, UniProt Q9UM73)
T11 construct: purchased Carna Biosciences
Method in brief: as §1

BMX = target: T12, BMX (Homo sapiens, UniProt P51813)
T12 construct: purchased Carna Biosciences
Method in brief: as §1

IKKε = target: T13, IKKε (Homo sapiens, UniProt Q14164)
T13 construct: purchased Carna Biosciences
Method in brief: as §1

JNK1 = target: T14, JNK1 (Homo sapiens, UniProt P45983)
T14 construct: purchased Carna Biosciences
Method in brief: as §1

FRK = target: T15, FRK (Homo sapiens, UniProt P42685)
T15 construct: purchased Carna Biosciences
T15 sequence (P42685 whole entry): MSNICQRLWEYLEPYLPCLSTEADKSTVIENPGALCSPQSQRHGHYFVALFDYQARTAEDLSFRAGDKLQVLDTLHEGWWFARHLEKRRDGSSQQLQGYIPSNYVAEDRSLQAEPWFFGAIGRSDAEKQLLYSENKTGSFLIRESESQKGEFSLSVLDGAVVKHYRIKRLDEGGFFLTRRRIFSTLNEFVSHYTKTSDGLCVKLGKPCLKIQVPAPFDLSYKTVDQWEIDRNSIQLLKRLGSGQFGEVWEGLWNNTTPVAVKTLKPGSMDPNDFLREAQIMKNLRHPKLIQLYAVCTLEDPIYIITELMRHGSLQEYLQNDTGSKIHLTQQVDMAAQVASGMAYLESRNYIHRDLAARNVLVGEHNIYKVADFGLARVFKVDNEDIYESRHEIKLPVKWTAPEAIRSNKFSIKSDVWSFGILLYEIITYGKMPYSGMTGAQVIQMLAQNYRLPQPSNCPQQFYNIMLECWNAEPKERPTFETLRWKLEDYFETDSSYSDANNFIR
Method in brief: as §1

BRSK1 = target: T16, BRSK1 (Homo sapiens, UniProt Q8TDC3)
T16 construct: purchased Carna Biosciences
Method in brief: as §1

MSK2 = target: T17, MSK2 (Homo sapiens, UniProt O75676)
T17 construct: purchased Carna Biosciences
Method in brief: as §1

ABL(T315I) = target: T18, ABL(T315I) (Homo sapiens, UniProt P00519, T315I)
T18 construct: purchased Carna Biosciences
Method in brief: as §1

HCK = target: T19, HCK (Homo sapiens, UniProt P08631)
T19 construct: purchased Carna Biosciences
Method in brief: as §1

JAK2 = target: T20, JAK2 (Homo sapiens, UniProt O60674)
T20 construct: purchased Carna Biosciences
Method in brief: as §1

EGFR = target: T21, EGFR (Homo sapiens, UniProt P00533)
T21 construct: purchased Carna Biosciences
T21 sequence (P00533 25-1210): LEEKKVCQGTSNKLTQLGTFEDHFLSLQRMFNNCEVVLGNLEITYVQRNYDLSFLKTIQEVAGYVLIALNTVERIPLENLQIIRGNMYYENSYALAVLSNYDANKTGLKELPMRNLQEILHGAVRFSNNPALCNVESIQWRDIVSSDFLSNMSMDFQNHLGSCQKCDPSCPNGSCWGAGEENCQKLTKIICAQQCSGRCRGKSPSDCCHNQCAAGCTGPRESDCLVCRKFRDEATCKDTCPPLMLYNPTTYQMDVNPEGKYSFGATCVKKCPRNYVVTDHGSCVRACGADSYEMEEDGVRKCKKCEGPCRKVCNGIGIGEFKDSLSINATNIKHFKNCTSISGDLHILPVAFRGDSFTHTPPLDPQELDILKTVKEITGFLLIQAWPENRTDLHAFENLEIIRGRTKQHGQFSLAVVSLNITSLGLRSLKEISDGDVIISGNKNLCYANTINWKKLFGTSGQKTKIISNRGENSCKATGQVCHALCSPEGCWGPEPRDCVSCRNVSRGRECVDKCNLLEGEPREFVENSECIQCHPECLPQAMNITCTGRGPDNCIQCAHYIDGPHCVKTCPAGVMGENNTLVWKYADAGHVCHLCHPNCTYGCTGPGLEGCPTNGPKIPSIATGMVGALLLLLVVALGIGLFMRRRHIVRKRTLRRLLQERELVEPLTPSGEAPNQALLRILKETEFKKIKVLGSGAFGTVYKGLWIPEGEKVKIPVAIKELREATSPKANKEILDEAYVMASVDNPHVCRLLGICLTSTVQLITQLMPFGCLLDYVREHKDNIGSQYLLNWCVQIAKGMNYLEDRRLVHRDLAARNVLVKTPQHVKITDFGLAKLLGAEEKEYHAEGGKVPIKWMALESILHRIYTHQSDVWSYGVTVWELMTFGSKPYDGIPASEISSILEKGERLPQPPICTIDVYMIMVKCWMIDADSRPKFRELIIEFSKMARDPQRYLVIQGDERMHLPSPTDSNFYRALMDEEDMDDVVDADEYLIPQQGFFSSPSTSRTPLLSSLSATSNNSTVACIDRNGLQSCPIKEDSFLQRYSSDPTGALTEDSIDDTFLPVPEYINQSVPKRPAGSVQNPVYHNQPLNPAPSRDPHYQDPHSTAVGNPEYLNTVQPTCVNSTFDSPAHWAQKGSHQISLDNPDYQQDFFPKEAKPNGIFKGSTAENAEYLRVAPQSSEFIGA
Method in brief: as §1

EPHB4 = target: T22, EPHB4 (Homo sapiens, UniProt P54760)
T22 construct: purchased Carna Biosciences
Method in brief: as §1

ALK(F1174L) = target: T23, ALK(F1174L) (Homo sapiens, UniProt Q9UM73, F1174L)
T23 construct: purchased Carna Biosciences
Method in brief: as §1

AKT2 = target: T24, AKT2 (Homo sapiens, UniProt P31751)
T24 construct: purchased Carna Biosciences
T24 sequence (P31751 whole entry): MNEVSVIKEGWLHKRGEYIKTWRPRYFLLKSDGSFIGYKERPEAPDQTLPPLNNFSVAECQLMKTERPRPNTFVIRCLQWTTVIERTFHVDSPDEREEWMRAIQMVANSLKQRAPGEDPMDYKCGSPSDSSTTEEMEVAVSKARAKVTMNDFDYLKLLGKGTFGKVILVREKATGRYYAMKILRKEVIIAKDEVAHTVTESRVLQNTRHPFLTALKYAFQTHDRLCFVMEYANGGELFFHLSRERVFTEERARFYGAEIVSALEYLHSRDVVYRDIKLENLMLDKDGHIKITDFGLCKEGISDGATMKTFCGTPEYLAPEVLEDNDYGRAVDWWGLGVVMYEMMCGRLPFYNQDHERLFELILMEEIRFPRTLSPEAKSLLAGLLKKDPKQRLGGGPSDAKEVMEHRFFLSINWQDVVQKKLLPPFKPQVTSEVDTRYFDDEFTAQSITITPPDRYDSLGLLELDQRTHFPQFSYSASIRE
Method in brief: as §1

MAP2K1_Cascade = target: T25, MAP2K1_Cascade (Homo sapiens, UniProt Q02750)
T25 construct: purchased Carna Biosciences
Method in brief: as §1

FGR = target: T26, FGR (Homo sapiens, UniProt P09769)
T26 construct: purchased Carna Biosciences
T26 sequence (P09769 whole entry): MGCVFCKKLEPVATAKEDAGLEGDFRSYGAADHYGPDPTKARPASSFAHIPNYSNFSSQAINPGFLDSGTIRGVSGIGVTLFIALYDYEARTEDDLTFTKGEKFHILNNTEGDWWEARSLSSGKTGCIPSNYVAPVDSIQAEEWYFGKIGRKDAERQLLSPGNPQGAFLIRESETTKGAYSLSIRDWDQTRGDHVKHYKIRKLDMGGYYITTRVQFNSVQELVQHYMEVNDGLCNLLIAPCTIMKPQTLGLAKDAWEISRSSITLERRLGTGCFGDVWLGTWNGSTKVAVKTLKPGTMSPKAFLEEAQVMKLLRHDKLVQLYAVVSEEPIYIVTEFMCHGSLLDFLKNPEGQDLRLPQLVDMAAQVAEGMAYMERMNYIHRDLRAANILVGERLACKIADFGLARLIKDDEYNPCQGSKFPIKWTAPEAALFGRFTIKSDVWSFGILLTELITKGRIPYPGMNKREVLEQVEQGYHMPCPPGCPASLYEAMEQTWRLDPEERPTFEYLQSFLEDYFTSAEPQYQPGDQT
Method in brief: as §1

YES = target: T27, YES (Homo sapiens, UniProt P07947)
T27 construct: purchased Carna Biosciences
Method in brief: as §1

EPHA8 = target: T28, EPHA8 (Homo sapiens, UniProt P29322)
T28 construct: purchased Carna Biosciences
Method in brief: as §1

NEK9 = target: T29, NEK9 (Homo sapiens, UniProt Q8TD19)
T29 construct: purchased Carna Biosciences
Method in brief: as §1

SIK = target: T30, SIK (Homo sapiens, UniProt P57059)
T30 construct: purchased Carna Biosciences
Method in brief: as §1

TYRO3 = target: T31, TYRO3 (Homo sapiens, UniProt Q06418)
T31 construct: purchased Carna Biosciences
T31 sequence (Q06418 41-890): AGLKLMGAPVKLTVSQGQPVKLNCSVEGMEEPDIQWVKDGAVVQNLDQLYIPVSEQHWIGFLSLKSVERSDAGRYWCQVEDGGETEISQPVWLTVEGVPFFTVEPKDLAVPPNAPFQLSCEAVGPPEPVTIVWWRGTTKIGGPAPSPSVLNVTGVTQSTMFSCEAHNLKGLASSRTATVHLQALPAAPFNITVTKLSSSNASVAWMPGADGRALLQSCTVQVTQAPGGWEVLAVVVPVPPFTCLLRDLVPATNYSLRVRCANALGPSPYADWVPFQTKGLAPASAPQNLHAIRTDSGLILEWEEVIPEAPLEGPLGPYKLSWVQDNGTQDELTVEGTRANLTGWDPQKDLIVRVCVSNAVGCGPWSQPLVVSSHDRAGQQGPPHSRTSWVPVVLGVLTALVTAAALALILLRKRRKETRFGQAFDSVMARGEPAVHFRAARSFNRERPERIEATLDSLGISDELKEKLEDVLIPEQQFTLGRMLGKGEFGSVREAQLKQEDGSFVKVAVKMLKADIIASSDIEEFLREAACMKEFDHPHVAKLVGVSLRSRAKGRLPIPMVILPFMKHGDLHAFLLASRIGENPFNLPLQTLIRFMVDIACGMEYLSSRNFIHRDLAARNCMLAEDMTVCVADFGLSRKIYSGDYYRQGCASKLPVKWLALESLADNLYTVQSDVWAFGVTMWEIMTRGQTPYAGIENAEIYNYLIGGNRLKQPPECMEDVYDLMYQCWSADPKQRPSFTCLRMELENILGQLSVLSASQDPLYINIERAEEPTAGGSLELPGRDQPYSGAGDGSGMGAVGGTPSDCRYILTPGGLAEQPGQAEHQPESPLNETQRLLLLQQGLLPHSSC
Method in brief: as §1

CSK = target: T32, CSK (Homo sapiens, UniProt P41240)
T32 construct: purchased Carna Biosciences
Method in brief: as §1

p38δ = target: T33, p38δ (Homo sapiens, UniProt O15264)
T33 construct: purchased Carna Biosciences
Method in brief: as §1

CDK9/CycT1 = target: T34, CDK9/CycT1 (Homo sapiens, UniProt P50750)
T34 construct: purchased Carna Biosciences
Method in brief: as §1

KIT = target: T35, KIT (Homo sapiens, UniProt P10721)
T35 construct: purchased Carna Biosciences
Method in brief: as §1

DDR2 = target: T36, DDR2 (Homo sapiens, UniProt Q16832)
T36 construct: purchased Carna Biosciences
Method in brief: as §1

[H]/N=C1/NC(=O)C(=Cc2ccc3c(c2)CCO3)S1 [CaNDY, (Z)-5-[(2,3-dihydrobenzofuran-5-yl)methylene]-2-iminothiazolidin-4-one] showed a remaining activity at 1 µM (IKKα) of 95.7%, a remaining activity at 1 µM (ALK(L1196M)) of 97.8% and a remaining activity at 1 µM (SRC) of 102%. The remaining activity at 1 µM (PASK) was 65.1%, the remaining activity at 1 µM (TRKB) was 101% and the “%Activity” value (BTK) was 85.7%. It also gave a remaining activity at 1 µM (MGC42105) of 102%, a remaining activity at 1 µM (BRK) of 95.4% and a remaining activity at 1 µM (FLT4) of 103%. For the same molecule, the remaining activity at 1 µM (SPHK2) was 92.3%, the remaining activity at 1 µM (ALK) was 98.7% and the remaining activity at 1 µM (BMX) was 100%. For the same molecule, the remaining activity at 1 µM (IKKε) was 97.6%, the “%Activity” value (JNK1) was 102.4% and the remaining activity at 1 µM (FRK) was 102%. It also gave a remaining activity at 1 µM (BRSK1) of 97.3%, a remaining activity at 1 µM (MSK2) of 98.3% and a remaining activity at 1 µM (ABL(T315I)) of 97%. The remaining activity at 1 µM (HCK) was 95.5%, the “%Activity” value (JAK2) was 100.3% and the “%Activity” value (EGFR) was 99.9%. The remaining activity at 1 µM (EPHB4) was 96.6%, the remaining activity at 1 µM (ALK(F1174L)) was 97.9% and the remaining activity at 1 µM (AKT2) was 105%. It also gave a remaining activity at 1 µM (MAP2K1_Cascade) of 99.3%, a remaining activity at 1 µM (FGR) of 102% and a remaining activity at 1 µM (YES) of 101%. For the same molecule, the remaining activity at 1 µM (EPHA8) was 101%, the remaining activity at 1 µM (NEK9) was 91.6% and the “%Activity” value (SIK) was 99.9%. The remaining activity at 1 µM (TYRO3) was 104%, the “%Activity” value (CSK) was 99.7% and the remaining activity at 1 µM (p38δ) was 74.8%. It also gave a remaining activity at 1 µM (CDK9/CycT1) of 19.4%, a remaining activity at 1 µM (KIT) of 99.3% and a remaining activity at 1 µM (DDR2) of 101%.

— article PMC4522657, “Identification of a DYRK1A Inhibitor that Induces Degradation of the Target Kinase using Co-chaperone CDC37 fused with Luciferase nanoKAZ” (Scientific Reports, 2015)
